Measurements from patent US20210078917A1, “FUNGICIDAL FERTILIZER COMPOSITION COMPRISING POTASSIUM PHOSPHITE AND GAMMA-POLY-GLUTAMIC ACID” (JIANGSU HUIFENG BIO AGRICULTURE CO., LTD., priority 2018, published 2021).

Assays:
pepper = assay: Yield increase and quality test of pepper; type: in vivo; settings: 400 g per mu, sprayed during the seedling stage
Experimental: (§1) This fertilizer was applied on the basis of conventional fertilization in each treatment area. Fertilization method: The fertilizer was applied by spraying during the seedling stage of pepper. The yield, quality and control effect on disease on pepper were determined.

tomato = assay: Yield increase and quality test of tomato; type: in vivo; settings: 600 g per mu, sprayed during the seedling stage
Experimental: […]. This fertilizer was applied on the basis of conventional fertilization in each treatment area. Fertilization method: The fertilizer was applied by spraying during the seedling stage of tomato. The yield, quality and control effect on disease on tomato were determined.

peanut = assay: Yield increase and quality test of peanut; type: in vivo; settings: 800 g per mu, sprayed three times during flowering and fruiting period
Experimental: (§2) […]. Fertilization method: The fertilizer was applied three times by spraying during the flowering and fruiting period. The yield, quality and control effect on disease on peanut were determined.

Disease (black fruit) = assay: Disease control test of Chinese wolfberry, black fruit; type: in vivo, Chinese wolfberry "Ningqi No. 7"; settings: 1.2 kg active ingredient per mu
Experimental: The test was carried out in a Chinese wolfberry planting test plot in Koluke Town, Delingha City, Qinghai Province. Chinese wolfberry plants were all three-year-old seedlings of variety “Ningqi No. 7” at a density of 270 plants/667 m^2. This experiment was designed such that different plots were arranged in order. […] Fertilization method: It was applied together with other base fertilizers, by laying the fertilizer at the bottom of the planting pit, where the depth of the trench was 70 cm, the diameter of the pit was 80 cm, and the soil was mixed in and applied at the bottom when applying fertilizer. The yield, quality and control effect on disease on fresh Chinese wolfberry fruit were determined.

Disease (blight) = assay: Disease control test of pepper, blight; type: in vivo; settings: 400 g per mu
Experimental: as §1

root rot of potatoes = assay: Disease control test of potatoes (field), root rot; type: in vivo, potato; settings: amount 7000 g active ingredient/mu
Experimental: (§3) (1) Yield increase and disease control test of potatoes with fungicidal fertilizer composition of the present invention. This test was conducted in 2017 in Anding District, Dingxi City, Gansu Province. This area is a typical semi-arid rain-fed agricultural area. The soil type is loessial soil, with deep soil layers and uniform soil fertility. The previous crop is rape. The fertilizer of the present invention was totally applied as a base fertilizer at a time. […] Ridging after flat planting in wide and narrow rows was adopted. The wide row spacing was 60 cm, the narrow row spacing was 30 cm, the plant spacing was 30 cm, the sowing depth was 15 cm, and the plant density was 58,000 plants·hm^−2. Other field management was the same as that in large area of field. The number of large- and medium-sized potatoes ([…]) per plant was randomly determined, and the relative increase rate of large- and medium-sized potatoes was determined. The yield per mu and the relative increase rate of yield were determined. The crude starch content and increase rate of crude starch content were determined. The control effect on root rot of potatoes was also determined.

Chinese wolfberry = assay: Yield increase and quality test of Chinese wolfberry; type: in vivo, Chinese wolfberry "Ningqi No. 7"; settings: 1.2 kg active ingredient per mu
Experimental: The test was carried out in a Chinese wolfberry planting test plot in Koluke Town, Delingha City, Qinghai Province. Chinese wolfberry plants were all three-year-old seedlings of variety “Ningqi No. 7” at a density of 270 plants/667 m^2. This experiment was designed such that different plots were arranged in order. […]. Fertilization method: It was applied together with other base fertilizers, by laying the fertilizer at the bottom of the planting pit, where the depth of the trench was 70 cm, the diameter of the pit was 80 cm, and the soil was mixed in and applied at the bottom when applying fertilizer. The yield, quality and control effect on disease on fresh Chinese wolfberry fruit were determined.

potatoes = assay: Yield increase test of potatoes (field); type: in vivo, potato; settings: amount 7000 g active ingredient/mu, base fertilizer
Experimental: as §3

stem rot of peanut = assay: Disease control test of peanut, stem rot; type: in vivo; settings: 800 g per mu
Experimental: as §2

soybean = assay: Yield increase test of soybean; type: in vivo; settings: 4000 g effective ingredient per mu
Experimental: (§4) Fertilization method: The fertilizer was co-applied with other fertilizers. The yield, quality and control effect on disease on soybean were determined.

[1] = tested on: root rot, a soil-borne disease of soybeans; assay: Disease control test of soybean, root rot; type: in vivo; settings: 4000 g effective ingredient per mu
Experimental: as §4

Disease (rot) = assay: Disease control test of tomato, rot; type: in vivo; settings: 600 g per mu
Experimental: This fertilizer was applied on the basis of conventional fertilization in each treatment area. Fertilization method: The fertilizer was applied by spraying during the seedling stage of tomato. The yield, quality and control effect on disease on tomato were determined.

## Potassium phosphite
pepper
  Quality: Vitamin C: 24.4 mg/100 g
  Yield: Total yield: 3462 kg/mu
  Yield: Weight of single fruit: 51.8 g
tomato
  Quality: Amino acid: 695.31 mg/100 kg
  Quality: Vitamin C: 15.69 mg/100 g
  Yield: Total yield: 3626 kg/mu
  Yield: Weight of single fruit: 22.6 g
peanut
  Quality: Linoleic acid: 44.61%
  Quality: Protein: 23.08%
  Yield: 335.7 kg/mu
  Yield: Seed yield: 70.3%
  Yield: Weight per 100 fruits: 122.3 g
Disease (black fruit); 10 days after application
  Disease (black fruit): Control effect: 66.51%
  Disease (black fruit): Disease index: 5.13
Disease (black fruit); 30 days after application
  Disease (black fruit): Control effect: 45.24%
  Disease (black fruit): Disease index: 15.67
Disease (blight); 10 days after application
  Disease (blight): Control effect: 71.36%
  Disease (blight): Disease index: 3.00
Disease (blight); 42 days after application
  Disease (blight): Control effect: 31.52%
  Disease (blight): Disease index: 12.43
Root rot of potatoes; 10 days after application
  Control effect: 57.59%
  Disease index of root rot: 11.56
Root rot of potatoes; 30 days after application
  Control effect: 32.47%
  Disease index of root rot: 26.19
Chinese wolfberry
  Quality: Polysaccharide: 8.63%
  Quality: Total amino acid content: 7.41%
  Yield of fresh Chinese wolfberry fruit: Weight per 100 fruits: 126.8 g
  Yield of fresh Chinese wolfberry fruit: Yield: 2703.5 kg/mu
potatoes
  Crude starch content: 16.8%
  Fresh weight of large- and medium-sized potatoes: 518.8 g/plant
  Increase rate of crude starch content: 6.3%
  Increase rate of large- and medium-sized potatoes: 14.8%
  Increase rate of yield: 12.4%
  Yield: 1446 kg/mu
Stem rot of peanut; 10 days after application
  Disease (Stem rot): Control effect: 78.64%
  Disease (Stem rot): Disease index: 3.28
Stem rot of peanut; 30 days after application
  Disease (Stem rot): Control effect: 39.36%
  Disease (Stem rot): Disease index: 9.31
soybean
  Branches: 18.5 count
  Increase rate (branches): 6.8%
  Increase rate (weight per 100 grains): 7.1%
  Increase rate (yield): 11.4%
  Weight per 100 grains: 26.50 g
soybean; per 667 M^2
  Yield (667 M^2): 196.7
[1]; 12 days after application
  Control effect: 75.42%
  Disease index of root rot: 4.73
[1]; 35 days after application
  Control effect: 36.78%
  Disease index of root rot: 19.93
Disease (rot); 12 days after application
  Disease (rot): Control effect: 62.42%
  Disease (rot): Disease index: 5.95
Disease (rot); 45 days after application
  Disease (rot): Control effect: 34.52%
  Disease (rot): Disease index: 16.16
